What was measured:
[1] = target: T1, CRFR2 (Homo sapiens, UniProt Q13324); assay: binding to CRFR2 (Ki)
T1 sequence (Q13324 1-411): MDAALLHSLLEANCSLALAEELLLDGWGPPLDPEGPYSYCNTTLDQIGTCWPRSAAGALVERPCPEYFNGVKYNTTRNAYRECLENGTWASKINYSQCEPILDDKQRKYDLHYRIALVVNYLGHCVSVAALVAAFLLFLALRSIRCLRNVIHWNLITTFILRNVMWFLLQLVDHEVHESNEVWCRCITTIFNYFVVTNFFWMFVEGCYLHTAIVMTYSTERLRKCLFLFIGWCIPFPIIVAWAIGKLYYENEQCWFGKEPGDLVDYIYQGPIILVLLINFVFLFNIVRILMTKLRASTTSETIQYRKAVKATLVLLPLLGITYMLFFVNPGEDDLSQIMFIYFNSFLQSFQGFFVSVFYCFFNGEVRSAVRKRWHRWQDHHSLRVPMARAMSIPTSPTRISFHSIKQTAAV

[2] = system: p-tau; assay: cortisol-induced p-tau increase in vitro (screen of clinical library of CRF-1 inhibitors); format: cell-based
Excerpt: To identify therapeutic candidates, a clinical library of CRF-1 inhibitors to was screened to determine their effects on cortisol-induced p-tau increases. […] J03 was shown specifically to inhibit stress-induced p-tau increases by cortisol in vitro.

[3] = system: tau and phospho-tau in SHSY-5Y cells; assay: CRF-induced tau, p-tau and sAPPα changes in SHSY-5Y cells; format: cell-based; details: for p-tau/tau ratio: FIG. 32C
[4] = system: tau and p-tau in SH-Sy5Y cells; assay: screens for tau and p-tau levels in SH-Sy5Y cells (no CRF stated); format: cell-based; details: screen of FIG. 28B
Procedure: As described below, in vitro studies were performed using SHSY-5Y cells. These cells are a useful neurological model that differentiate into cells with morphological and biochemical characteristics of mature neurons including mature isoforms of tau. […]

[5] = in vivo pharmacokinetics, plasma and brain levels; design: species or system mouse
[6] = system: J20 mice; assay: J03 pilot study #1 in J20 mice (SQ, 12 days); format: in vivo, mouse
Procedure: (§1) Animal experiments were performed using J20 mice. The J20 mouse is a model of for Alzheimer's disease. This model overexpresses human APP with two mutations linked to familial Alzheimer's disease (the APP KM670/671NL (Swedish) and 5APP V717F (Indiana) mutations).
In pilot study #1, J20 mice housed singly were treated by SQ injection of J03 in PEG/b-MCD at 10 mkd for 12 days. NOR analysis of object memory (N=5/group) was performed. The results are illustrated in FIGS. 10D-10I. […] There was no difference in Aβ1-40 (FIG. 10E), but a decrease in Aβ1-42 (FIG. 10F).

[7] = system: J20 mice; assay: J03 pilot study #2 in J20 mice (oral, longer duration); format: in vivo, mouse
Procedure: as §1
Based on these promising results, the study was repeated (pilot study #2) with oral delivery and a longer duration.

[8] = system: J20 mice; assay: J17 pilot study in J20 mice (oral, 28 days); format: in vivo, mouse; details: oral 28 days
Procedure: as §1
In a J17 pilot study (#1 pilot study) male and female J20 mice were housed singly and treated with J17 at 10 rnkd by oral delivery for 28 days.

[9] = system: tau and p-tau; assay: effect of J03 and J19 on tau and p-tau (FIG. 39E-39F, system not given); details: FIG. 39E
Excerpt: JI9 decreased tau and both J03 and JI9 decreased p-tau (FIG. 39E). Therefore, while the p-tau/tau ratio looks unchanged for J19 FIG. 39F. This is due to the tau decrease and not due to a lack of effect.

[10] = CRF-1 at 100 nM for 3 days, compound at 20 nM, FIG. 29A
[11] = oral delivery, longer duration, J20 mice

SMILES: CCC(COC)n1nnc2c(Nc3ccc(OC)cc3C)nc(C)cc21 (stereo not drawn) [J03, N-(4-Methoxy-2-methylphenyl)-1-[1-(methoxymethyl)propyl]-6-methyl-1H-1,2,3-triazolo[4,5-c]pyridine-4-amine]
- Ki [1]: > 10 µM
- stress-induced p-tau increases by cortisol [2]: inhibit
- p-tau [3, 10]: decreased
- total tau [3, 10]: decreased
- tau after exposure to CRF ([3]; FIG. 21D): decreased
- p-tau after exposure to CRF ([3]; FIG. 21E): decreased
- tau increases induced by CRF ([3]; SHSY-5Y cells cultured without serum, CRF at increasing concentrations, FIG. 10A): reduces
- phospho-tau (p-tau) increases induced by CRF ([3]; SHSY-5Y cells cultured without serum, CRF at increasing concentrations, FIG. 10B): reduces
- sAPPα increase, significance ([3]; at 100 nM CRF, FIG. 32D): reached significance
- p-tau/tau ratio ([3]; at 50 and 100 nM CRF): highly significantly decreased
- tau ([3]; in the absence of CRF and in the presence of 100 nM CRF, FIG. 32A): significantly decreased
- p-tau/tau ratio ([3]; in the absence of CRF): decreased
- p-tau ([3]; in the presence and absence of CRF, FIG. 32B): significantly reduced
- sAPPα after exposure to CRF ([3]; versus control, FIG. 21C): lower
- sAPPα ([3]; with and without CRF, FIG. 32D): trend for sAPPα to be higher
- p-tau [4]: neither J14 nor J03 decreased
- total tau [4]: neither J14 nor J03 decreased
- brain levels ([5]; 10 mk subcutaneous (SQ) single injection, J20 mice, FIG. 10C): low
- brain levels at the peak after oral delivery, compared with SQ ([5]; oral delivery by feeding (not gavage) at 10 mg/kg): slightly higher
- NOR analysis of object memory (behavior) ([6]; J20 mice housed singly, SQ 10 mkd in PEG/b-MCD for 12 days, FIG. 10D): slight improvement
- P-tau ([6]; SQ 10 mkd, 12 days): significantly lower
- Aβ1-40 ([6]; SQ 10 mkd, 12 days, FIG. 10E): no difference
- Aβ1-42 ([6]; SQ 10 mkd, 12 days, FIG. 10F): decrease
- Aβ1-40/1-42 ratio ([6]; SQ 10 mkd, 12 days, FIG. 10G): significantly increased
- SAPP ([6]; SQ 10 mkd, 12 days, FIG. 10H): very slightly increased
- sAPP/Aβ1-42 ratio ([6]; SQ 10 mkd, 12 days, FIG. 10I): very slightly increased
- ratio (p-tau and tau) ([6]; SQ 10 mkd, 12 days, great individual variation): slightly higher
- total tau ([6]; SQ 10 mkd, 12 days, largely due to one mouse, FIG. 11A): decreased
- novel location assay / preference [7, 11]: performed well
- novel object assay [7, 11]: performed well
- sAPPα ([7]; oral, FIG. 13A): increased slightly
- sAPPβ ([7]; oral, FIG. 13B): unchanged
- sAPPα/sAPPβ ratio ([7]; oral, FIG. 13C): slightly increased
- Aβ1-40 ([7]; oral, FIG. 14A): unchanged
- Aβ1-42 ([7]; oral, FIG. 14B): unchanged
- Aβ1-40/Aβ1-42 ratio ([7]; oral, FIG. 14C): unchanged
- p-tau ([7]; oral, decrease reached statistical significance, FIG. 16): decreased
- activity ([8]; male and female J20 mice housed singly, not significant, FIG. 24A): lowered
- novel object preference, overall ([8]; all mice, FIG. 24B): increased
- sAPPα ([8]; both genders, FIG. 25A): increase
- ratio sAPPα/sAPPβ ([8]; males, FIG. 25C): slight increase
- p-tau [9]: decreased
